The values that follow come from PMC9738632 (Molecules, 2022).

Series [1] is described as follows: Cytotoxicity assay (MTT) in MDCK cells. The settings on record: dog, read-out: CC50 (50% cytotoxic concentration). The class given is cell-based, Canine. The procedure:
(§1) Initially, maximum non-toxic concentrations were determined for compounds 1–22 to exclude their non-specific antiviral activity. The in vitro cytotoxicity of the tested compounds (CC50) was studied in the normal Madin-Darby Canine Kidney cell line (MDCK) by the MTT ((3-(4,5-dimethylthiazol-2-yl)-2,5-diphenyltetrazolium bromide) test. The highest concentration tested was […]. The cytotoxicity of oseltamivir carboxylate and rimantadine was also evaluated as these have been used as reference drugs in antiviral tests. Compounds at concentration that kills no more than 50% of cells (CC50) were used for further investigation of antiviral activity.
(§2) The MDCK cells were seeded onto 96-well culture plates (10^4 cells per well) and incubated at 36 °C in 5% CO2 until continuous monolayer formation. To assess the toxicity of the compounds, a series of their 3-fold dilutions, at concentrations of 300 to 3.7 μg/mL in Eagle’s Minimal Essential Medium (MEM), were prepared. The dilutions were added to the wells of the plates. The cells were incubated for 72 h at 36 °C in a CO2 incubator under 5% CO2. Further, a microtetrazolium (MTT) assay was performed on the 96-well plates. The cells were washed 2 times with saline (0.9% NaCl), and 100 μL/well of MTT solution [3-(4,5-dimethylthiazol-2-yl)-2,5-diphenyltetrazolium bromide] at a concentration of […] in MEM was added. The plates were incubated for 1 h at 36 °C, the liquid was removed, and dimethylsulfoxide (DMSO) (0.1 mL per well) was added. The optical density (OD) of the cells was measured on a Thermo Multiskan FC spectrophotometer (Thermo Fisher Scientific, Waltham, MA, USA) at a wavelength of 540 nm. Based on the obtained data, the CC50, the concentration of the compound that destroys 50% of the cells in the culture, was calculated for each specimen.

Series [2] deals with MDCK cells. In words: Cytotoxicity assay (MTT) in MDCK cells. It is filed as cell-based, Canine. To be noted: 72 h, read-out: CC50 (50% cytotoxic concentration). As to the method: as §1, §2
Series [3] has as its system influenza virus A/Puerto Rico/8/34 (H1N1). In words: organism not typed. To be noted: read-out: IC50 (50% inhibitory concentration). It is filed as cell-based.
Series [4] can be described thus: Cytotoxic assay (MTT) against BHK-21 cells. To be noted: hamster, read-out: CC50 (50% cytotoxic concentration). It is filed as cell-based. The procedure:
The cytotoxic evaluation of the extracts was carried out against the BHK-21 cells. Under cultural conditions of EMEM with FBS (10%), the assaying cells were grown in 96-well bottom-transparent plates at a density of 6 × 10^4 cells/mL per well. The compounds that had been dissolved in dimethyl sulfoxide (DMSO) with six different concentrations (500, 250, 125, 62.5, 31.25, 15.625 μg/mL) were added into each well; each concentration was used in triplicate. After incubation at 37 °C under 5% CO2 atmosphere for 48 h, MTT (0.5 mg/mL) was added into each well; afterwards, 4 h incubation was carried out. The liquid in the wells was removed, and DMSO ([…]) was added to each well. The optical absorbance was recorded on a microplate reader at λ = 570 nm (Genious Tecan, Grödig, […]). The optical density in the wells was plotted against the logarithm of compound concentration, and 50% cytotoxic concentration (CC50), the compound concentration decreasing the optical density twice comparing to control wells, was calculated using the appropriate software (Table Curve 2Dv4.USA).

A further series concerns DENV-1:VN/2017/D7709. The experiment in a line: Plaque reduction neutralization test (PRNT), DENV-1. To be noted: DENV-1, BHK-21 cells. The class given is cell-based, Dengue virus. The source says:
(§3) The dengue viruses used in this study were DENV-1:VN/2017/D7709, DENV-2: 00St22A, DENV-3: SMLC50, DENV-4: SLMC318. The virus strains were supplied by the Vietnam National Institute of Hygiene and Epidemiology. The four above serotypes of the Dengue virus were propagated in BHK-21 cell lines (provided by Nagasaki University, Japan) in Eagle’s Minimum Essential Medium (EMEM; Gibco Thermo Fischer Scientific, Waltham, MA, USA) with 2% Fetal Bovine Serum (FBS; Sigma Aldrich, St. Louis, MO, USA) at 37 °C under 5% CO2 atmosphere for 5–7 days. The BHK-21 cells were cultured using 10% FBS EMEM medium.
(§4) EMEM (1 mL) containing FBS (2%) was added into each of 24-well plates (with a concentration of […] –1.0 × 10^4 cells/well). The well plates were shaken to induce the formation of identical cell layers. Afterwards, the wells were incubated at 37 °C under 5% CO2 atmosphere overnight until the cell concentration reached at 70–90%. In case this concentration was not yet reached, the incubation was allowed to continue for a further 1 to 2 days.
(§5) The compounds 4–8 and 23 were totally dissolved in EMEM with a concentration of 500 μg/mL, which was serially diluted with step 2 with EMEM containing 2% FBS; the solutions of compounds were kept at 2–8 °C. The viruses were used at the dose of 2.5 × 10^3 PFU/mL in EMEM containing 2% FBS. The virus (100 μL) was added to all the diluted samples. The virus-compounds mixtures were incubated at 37 °C under 5% CO2 atmosphere for 60 min; afterwards, the medium in all wells of the plates was removed. The virus-compounds mixture (50 μL) was added into the wells, according to the designed experimental test concentration/dilution.
(§6) The viral medium was used as the negative control. EMEM (2 mL) containing methyl cellulose (1%) was added and re-incubated at 37 °C under 5% CO2 atmosphere for 4–6 days. The typical DENV-1 and DENV-4-induced CPE appeared after 4 days of incubation, while the durations for DENV-2 and DENV-3 were 5 and 6 days, respectively. These times of incubation allowed the formation of the plaques to be visually observable and countable. The plaques can be observed under a microscope or by eyes. The cells were fixed with formalin (3.7%) for 1 h at room temperature, washed with water, and stained with crystal violet (0.25%) for 1 h at room temperature. Finally, the plaques were counted.
(In general: In a plaque reduction assay, fewer plaques than in the control indicate reduced infectivity or spread.)

Another series relates to DENV-2: 00St22A. The experiment in a line: Plaque reduction neutralization test (PRNT), DENV-2. The class given is cell-based, Dengue virus. The settings on record: DENV-2, BHK-21 cells.
Source text: as §3, §4, §5, §6

A further series has as its system DENV-3: SMLC50. The experiment in a line: Plaque reduction neutralization test (PRNT), DENV-3. It is filed as cell-based, Dengue virus. To be noted: DENV-3, BHK-21 cells.
Source text: as §3, §4, §5, §6

The subject of the next series is DENV-4: SLMC318. In words: Plaque reduction neutralization test (PRNT), DENV-4. It is filed as cell-based, Dengue virus. To be noted: DENV-4, BHK-21 cells.
Source text: as §3, §4, §5, §6

The test system of another series is S. aureus. More on the design: method as in doi:10.3390/M1078. To be noted: cited from earlier work.
Another series deals with E. coli. More on the design: method as in doi:10.3390/M1078. The settings on record: cited from earlier work.
Another series relates to P. aeruginosa. More on the design: method as in doi:10.3390/M1078. The settings on record: cited from earlier work.
Series [5] relates to MDCK cells. More on the design: method as in earlier work. The settings on record: ref 40 (table), read-out: CC50 (50% cytotoxic concentration); cited from earlier work.
Series [6] concerns influenza virus A/Puerto Rico/8/34 (H1N1). Details: method as in earlier work. To be noted: ref 40 (table), read-out: IC50 (50% inhibitory concentration); cited from earlier work.

Values after ≈ are worked out from the molar mass of the structure shown. Read-outs that look alike come from different tables or passages of the source.

Regarding `CC1(C)CC[C@]2(C(=O)NCCNCCN)CC[C@]3(C)C(=CCC4[C@@]5(C)CCC(=O)C(C)(C)C5CC[C@]43C)C2C1` (stereo partly drawn) [Compound 5], the CC50 at 72 h in series [1] stood at 48 µM. In addition, in the series on MDCK cells [2], the CC50 was 50 ± 4 µM. Also, the IC50 in [3] (MDCK, 72 h) is 20 to 21 µM; in series [3], above 20 µM; in the series on DENV-1:VN/2017/D7709 (Dengue virus, DENV1, read-out: PRNT50 DENV-1 (concentration that reduces plaque number by 50%)), 220 ± 14 µM; with DENV-2: 00St22A (Dengue virus, DENV2, read-out: PRNT50 DENV-2 (concentration that reduces plaque number by 50%)), 372 ± 15 µM; with DENV-3: SMLC50 (Dengue virus, DENV3, read-out: PRNT50 DENV-3 (concentration that reduces plaque number by 50%)) it was 452 ± 26 µM; with DENV-4: SLMC318 (Dengue virus, DENV4, read-out: PRNT50 DENV-4 (concentration that reduces plaque number by 50%)), 433 ± 31 µM. The CC50 at 48 h in series [4] is above 463 µM. Also, the “PRNT50 DENV-1 (concentration that reduces plaque number by 50%)” value in the series with DENV-1:VN/2017/D7709 is “inactive”. In the series with DENV-2: 00St22A, the “PRNT50 DENV-2 (concentration that reduces plaque number by 50%)” value was “inactive”. Further, the “PRNT50 DENV-3 (concentration that reduces plaque number by 50%)” value in the series with DENV-3: SMLC50 was “inactive”. Further, in the series on DENV-4: SLMC318, the “PRNT50 DENV-4 (concentration that reduces plaque number by 50%)” value is “inactive”. In the series with S. aureus, the “MIC against S. aureus” value was 12.5 µM (≈ 6.75 µg/mL). Moreover, the “MIC against E. coli” value in the series with E. coli is 25 µM (≈ 13.5 µg/mL). Further, the “MIC against P. aeruginosa” value in the series on P. aeruginosa is 50 µM (≈ 27 µg/mL).
On to `COC(=O)[C@]12CCC(C)(C)CC1C1=CCC3[C@@]4(C)CC[C@H](N)C(C)(C)C4CC[C@@]3(C)[C@]1(C)CC2` (stereo partly drawn) [Compound 21, Methyl 3β-amino-oleanoate], for which the CC50 with MDCK cells [5] was 18 µM. The IC50 in [6] is 7.9 µM.
